According to PubChem BioAssay (NCI):
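Method: 48-hour compound exposure of cells in 96-well plates, five concentrations, linear interpolation of endpoints. GI50: concentration for 50% inhibition of growth. The concentration for full growth arrest is given as TGI.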

Assays:
Assay in all cases: NCI-60 cell line screen, 48 h
[1] = system: 786-0 renal
[2] = system: A498 renal
[3] = system: A549 NSCLC
[4] = system: ACHN renal
[5] = system: BT-549 breast
[6] = system: CAKI-1 renal
[7] = system: CCRF-CEM leukemia
[8] = system: COLO 205 colon
[9] = system: DU-145 prostate
[10] = system: EKVX NSCLC
[11] = system: HCC-2998 colon
[12] = system: HCT-116 colon
[13] = system: HCT-15 colon
[14] = system: HL-60(TB) leukemia
[15] = system: HOP-62 NSCLC
[16] = system: HOP-92 NSCLC
[17] = system: HS 578T breast
[18] = system: HT29 colon
[19] = system: IGROV1 ovarian
[20] = system: K-562 leukemia
[21] = system: KM12 colon
[22] = system: LOX IMVI melanoma
[23] = system: M14 melanoma
[24] = system: MALME-3M melanoma
[25] = system: MCF7 breast
[26] = system: MDA-MB-231 breast
[27] = system: MDA-MB-435
[28] = system: MOLT-4 leukemia
[29] = system: NCI-H226 lung
[30] = system: NCI-H23 lung
[31] = system: NCI-H460 lung
[32] = system: NCI-H522 lung
[33] = system: NCI/ADR-RES ovarian
[34] = system: OVCAR-3 ovarian
[35] = system: OVCAR-4 ovarian
[36] = system: OVCAR-5 ovarian
[37] = system: OVCAR-8 ovarian
[38] = system: PC-3 prostate
[39] = system: RPMI-8226 leukemia
[40] = system: RXF 393 renal
[41] = system: SF-268 CNS
[42] = system: SF-295 CNS
[43] = system: SF-539 CNS
[44] = system: SK-MEL-2 melanoma
[45] = system: SK-MEL-28 melanoma
[46] = system: SK-MEL-5 melanoma
[47] = system: SK-OV-3 ovarian
[48] = system: SN12C renal
[49] = system: SNB-19 CNS
[50] = system: SNB-75 CNS
[51] = system: SR leukemia
[52] = system: SW-620 colon
[53] = system: T-47D breast
[54] = system: TK-10 renal
[55] = system: U251 CNS
[56] = system: UACC-257 melanoma
[57] = system: UACC-62 melanoma
[58] = system: UO-31 renal

## CC[C@@]1(O)C(=O)OCc2c1cc1n(c2=O)Cc2c-1nc1ccccc1c2/C=N/OC(C)(C)C
[1]
  GI50: < 0.01 µM
  TGI: 11.2 µM
[2]
  GI50: < 0.0169 µM
  TGI: 0.169 µM
[3]
  GI50: < 0.01 µM
  TGI: 1.52 µM
[4]
  GI50: < 0.01 µM
  TGI: 0.127 µM
[5]
  GI50: < 0.0139 µM
  TGI: 2.02 µM
[6]
  GI50: < 0.01 µM
  TGI: 0.149 µM
[7]
  GI50: < 0.01 µM
  TGI: > 100 µM
[8]
  GI50: 0.0483 µM
  TGI: 2.05 µM
[9]
  GI50: < 0.01 µM
  TGI: 13.5 µM
[10]
  GI50: 0.073 µM
  TGI: 23.8 µM
[11]
  GI50: 0.183 µM
  TGI: 14.1 µM
[12]
  GI50: < 0.01 µM
  TGI: 13.4 µM
[13]
  GI50: 0.082 µM
  TGI: 25.7 µM
[14]
  GI50: < 0.01 µM
  TGI: < 0.0125 µM
[15]
  GI50: < 0.01 µM
  TGI: 0.53 µM
[16]
  GI50: < 0.0149 µM
  TGI: 3.4 µM
[17]
  GI50: 1.13 µM
  TGI: > 85.5 µM
[18]
  GI50: 0.0187 µM
  TGI: 0.66 µM
[19]
  GI50: 0.0391 µM
  TGI: 5.26 µM
[20]
  GI50: 0.0189 µM
  TGI: > 100 µM
[21]
  GI50: 0.0441 µM
  TGI: 4.84 µM
[22]
  GI50: < 0.01 µM
  TGI: 0.133 µM
[23]
  GI50: < 0.01 µM
  TGI: 0.226 µM
[24]
  GI50: 0.032 µM
  TGI: 1.58 µM
[25]
  GI50: < 0.01 µM
  TGI: 5.69 µM
[26]
  GI50: 0.552 µM
  TGI: 18.1 µM
[27]
  GI50: 0.0301 µM
  TGI: 3.92 µM
[28]
  GI50: < 0.01 µM
  TGI: 0.742 µM
[29]
  GI50: < 0.01 µM
  TGI: 0.0355 µM
[30]
  GI50: < 0.01 µM
  TGI: 0.158 µM
[31]
  GI50: < 0.01 µM
  TGI: 1.95 µM
[32]
  GI50: < 0.0124 µM
  TGI: 0.0812 µM
[33]
  GI50: < 0.01 µM
  TGI: 0.395 µM
[34]
  GI50: 0.0804 µM
  TGI: 1.78 µM
[35]
  GI50: 0.311 µM
  TGI: 13.9 µM
[36]
  GI50: 0.113 µM
  TGI: 5.47 µM
[37]
  GI50: < 0.0118 µM
  TGI: > 42.1 µM
[38]
  GI50: 0.0769 µM
  TGI: 27.2 µM
[39]
  GI50: 0.0116 µM
  TGI: 0.551 µM
[40]
  GI50: < 0.01 µM
  TGI: 0.0639 µM
[41]
  GI50: < 0.01 µM
  TGI: 2.8 µM
[42]
  GI50: < 0.01 µM
  TGI: 0.599 µM
[43]
  GI50: < 0.01 µM
  TGI: < 0.0216 µM
[44]
  GI50: 0.0447 µM
  TGI: 1.22 µM
[45]
  GI50: 0.372 µM
  TGI: 9.07 µM
[46]
  GI50: < 0.01 µM
  TGI: 0.102 µM
[47]
  GI50: < 0.01 µM
  TGI: 1.34 µM
[48]
  GI50: < 0.01 µM
  TGI: 4.75 µM
[49]
  GI50: < 0.01 µM
  TGI: 10.9 µM
[50]
  GI50: < 0.0109 µM
  TGI: 0.978 µM
[51]
  GI50: < 0.01 µM
  TGI: 0.108 µM
[52]
  GI50: < 0.011 µM
  TGI: 14.2 µM
[53]
  GI50: < 0.01 µM
  TGI: 15.1 µM
[54]
  GI50: 0.0787 µM
  TGI: 3.52 µM
[55]
  GI50: < 0.01 µM
  TGI: 0.812 µM
[56]
  GI50: 0.0666 µM
  TGI: 1.32 µM
[57]
  GI50: < 0.01 µM
  TGI: 0.118 µM
[58]
  GI50: < 0.01 µM
  TGI: 0.122 µM

## COc1ccc(CNc2nc(NCc3ccc(OC)cc3)c3n[nH]c(C(C)C)c3n2)cc1
[1]
  GI50: 4.07 µM
  TGI: 20.6 µM
[2]
  GI50: 2.21 µM
  TGI: 16.7 µM
[3]
  GI50: 7.25 µM
  TGI: > 100 µM
[4]
  GI50: 7.6 µM
  TGI: 20.7 µM
[5]
  GI50: 3.47 µM
  TGI: 12.2 µM
[6]
  GI50: 6.44 µM
  TGI: > 100 µM
[7]
  GI50: 3.73 µM
  TGI: 15.4 µM
[9]
  GI50: 11.4 µM
  TGI: 36.5 µM
[10]
  GI50: 8.09 µM
  TGI: 23.8 µM
[11]
  GI50: 2.43 µM
  TGI: 5.99 µM
[12]
  GI50: 4.06 µM
  TGI: 22.6 µM
[13]
  GI50: 5.09 µM
  TGI: 28.8 µM
[14]
  GI50: 2.75 µM
  TGI: 6.44 µM
[15]
  GI50: 10 µM
  TGI: 24.4 µM
[16]
  GI50: 9.48 µM
  TGI: 37.4 µM
[17]
  GI50: 2.97 µM
  TGI: 26 µM
[18]
  GI50: 1.61 µM
  TGI: 10.7 µM
[19]
  GI50: 4.38 µM
  TGI: 13.7 µM
[20]
  GI50: 3.13 µM
  TGI: 11.7 µM
[21]
  GI50: 4.29 µM
  TGI: > 100 µM
[22]
  GI50: 4.45 µM
  TGI: 17.3 µM
[23]
  GI50: 2.28 µM
  TGI: 5 µM
[24]
  GI50: 7.5 µM
  TGI: > 100 µM
[25]
  GI50: 3.31 µM
  TGI: 13.9 µM
[26]
  GI50: 4.67 µM
  TGI: 21.8 µM
[27]
  GI50: 3.17 µM
  TGI: 11.1 µM
[28]
  GI50: 3.88 µM
  TGI: 14.4 µM
[29]
  GI50: 14.1 µM
  TGI: 59.8 µM
[30]
  GI50: 4.09 µM
  TGI: 18.3 µM
[31]
  GI50: 2.98 µM
  TGI: 31.8 µM
[32]
  GI50: 2.26 µM
  TGI: 4.51 µM
[33]
  GI50: 3.59 µM
  TGI: 15.9 µM
[34]
  GI50: 3.04 µM
  TGI: 14.5 µM
[35]
  GI50: 1.76 µM
  TGI: 17.5 µM
[36]
  GI50: 8.65 µM
  TGI: 56.6 µM
[37]
  GI50: 12.5 µM
  TGI: 53.6 µM
[38]
  GI50: 4.29 µM
  TGI: 23.8 µM
[39]
  GI50: 3.27 µM
  TGI: 12.5 µM
[40]
  GI50: 18.6 µM
  TGI: > 100 µM
[41]
  GI50: 5.58 µM
  TGI: 26.3 µM
[42]
  GI50: 3.24 µM
  TGI: 9.96 µM
[43]
  GI50: 5.98 µM
  TGI: 23.5 µM
[44]
  GI50: 1.98 µM
  TGI: 4.93 µM
[45]
  GI50: 2.13 µM
  TGI: 16 µM
[46]
  GI50: 1.57 µM
  TGI: 3.01 µM
[47]
  GI50: 8.3 µM
  TGI: 22.9 µM
[48]
  GI50: 9.14 µM
  TGI: 27.7 µM
[49]
  GI50: 4.46 µM
  TGI: 23.1 µM
[50]
  GI50: 0.406 µM
  TGI: 5.32 µM
[51]
  GI50: 2.48 µM
  TGI: 6.17 µM
[52]
  GI50: 3.27 µM
  TGI: > 100 µM
[53]
  GI50: 3.38 µM
  TGI: 42.6 µM
[54]
  GI50: 8.29 µM
  TGI: 24.4 µM
[55]
  GI50: 4.22 µM
  TGI: 21.1 µM
[56]
  GI50: 16.4 µM
  TGI: 30.8 µM
[57]
  GI50: 5.94 µM
  TGI: 20 µM
[58]
  GI50: 4.81 µM
  TGI: 15 µM
